In patent US20260345723A1, “Treatments for Opioid-Induced Respiratory Depression” (priority 2023, published 2026):
Read-outs that look alike come from different tables or passages of the source.

Assays:
[1] = test system: morphine physical dependence; test: Morphine physical dependence (naloxone-precipitated withdrawal signs); format: in vivo, rat (male Sprague Dawley)
Description: (§1) Adult male Sprague Dawley (226-275 g) were purchased from Taconic Laboratories and maintained on a 12-hour/12-hour light/dark cycle with the lights off at 9:30 a.m. in a temperature- and humidity-controlled animal care facility. For the duration of the experiment, rats were housed two per cage and given unrestricted access to food and water at all times when in the home cage.
Rats were implanted (SC, flank area) with 75 mg morphine pellets that remained intact for 7 days. Beginning on the day of pellet implantation, rats received daily injections of saline or RAP-103 (0.001, 0.1 or 1 mg/kg, IP, delivered in […]) throughout chronic morphine exposure. On the test day, rats were transported to the testing room and allowed to acclimate for 60 min before naloxone hydrochloride (10 mg/kg, IP, delivered in a 1 ml/kg volume) was injected to precipitate withdrawal signs. Immediately after naloxone administration, rats were placed into individual observation boxes and observed for 60 min. A modified version of the Gellet-Holtzman scale was used to grade withdrawal signs. Wet dog shakes, teeth chattering, eye blinks, and paw tremor were evaluated as the number of qualitatively observed occurrences over the 60-min test time.
(§2) Respiratory depression data were analyzed by two-way ANOVA (RAP-103 pretreatment×morphine treatment) followed by a Bonferroni's multiple comparison test. Physical dependence data were analyzed by a Student's t-test. Self-administration (SA) time-course data for heroin and sucrose were analyzed by two-way ANOVA (RAP-103 treatment x day) followed by a Bonferroni's multiple comparison test. SA PR challenge data were analyzed by a Student's t-test. Protein and mRNA data were analyzed by two-way ANOVA (RAP-103 pretreatment x morphine treatment) followed by a Newman-Keuls post-hoc analysis. In all cases, P<0.05 was considered statistically significant.

[2] = test system: heroin self-administration; test: Heroin intravenous self-administration (FR and PR); format: in vivo, rat (male Sprague Dawley); conditions: RAP-103 1 mg/kg IP
Source text: as §1
Rats were anesthetized using vaporized isoflurane delivered via nebulizer. An indwelling silastic catheter was threaded subcutaneously over the shoulder blade, inserted in the jugular vein and sutured in place. The catheter routed to a cotton back mount platform that was sutured below the skin between the shoulder blades. Post-operation, catheters were flushed daily with 0.2 ml of timentin (0.93 mg/mL) dissolved in heparinized saline and covered with magnetic aluminum caps.
Following 5 days of post-operative recovery, rats began daily intravenous self-administration of heroin in Med-Associates operant chambers for at least 10 d. […] During IVSA, infusions of 0.1 mg/kg/inf heroin were rewarded to the animal after pressing the active lever. […]
Progressive ratio (PR) schedules of drug delivery are used to determine the ‘motivational’ state of an animal and drug reinforcing efficacy. […] BP is a dependent measure used to quantify the degree to which the subject will work to get the next administration of the drug which serves as a reinforcer in the self-administration paradigm. […]
as §2, with “In all cases, P<0.05 was considered statistically significant.” left out

[3] = format: in vivo, Rhesus macaque (Macaca mulatta)
Description: In non-human primates (rhesus monkeys) RAP-103 was dosed once on Day 1 by intravenous bolus injection at 1 mg/kg and plasma levels determined. […] Drug in plasma after a single IV dose (1 mg/Kg) was still measurable at anticipated therapeutic levels 96 hrs. post-dose in non-human primates as shown in FIG. 10B.

[4] = format: in vivo, rats and guinea pigs
[5] = format: in vivo, rodents and non-human primates (Rhesus macaque)
[6] = test system: morphine-induced respiratory depression
[7] = test system: CCR2
[8] = test system: CCR5
[9] = test system: CCR2; conditions: CCR2, monocyte chemotaxis; read-out: half maximal inhibitory concentration IC50; cited from earlier work
[10] = test system: CCR2; conditions: cited from earlier work
[11] = test system: molecular hallmarks of neuropathic pain; conditions: previous research; cited from earlier work
[12] = test system: CCR8; conditions: mechanism involving CCR8; cited from earlier work
[13] = test system: pain pathways; conditions: cited from earlier work
[14] = RAP-103 0.001, 0.1 mg/kg IP, P>0.05, reduced trend
[15] = RAP-103 1, 3 mg/kg IP in morphine-naïve rats vs saline, P>0.05
[16] = RAP-103 1 or 3 mg/kg IP 30 min before morphine 5 mg/kg SC, 60 min
[17] = RAP-103 only vs drug-naïve, P>0.05

For D-Thr-D-Thr-D-Asn-D-Tyr-D-Thr [RAP-103], the naloxone-precipitated eye blinking [1, 14] was “did not significantly impact”, the “naloxone-precipitated wet dog shakes” value [1, 14] was “did not significantly impact” and the “reduction of frequency of wet dog shakes” value ([1]; RAP-103 1 mg/kg IP daily, morphine 75 mg pellet 7 d, naloxone 10 mg/kg IP, P<0.01) was “approximately 43%”. For the same substance, the “reduction of frequency of eye blinking” value ([1]; RAP-103 1 mg/kg IP daily, morphine 75 mg pellet 7 d, naloxone 10 mg/kg IP, P<0.05) was “approximately 59%”, the paw tremor ([1]; any dose of RAP-103) was “not affected” and the teeth chattering ([1]; any dose of RAP-103) was “not affected”. The “responding on the inactive lever” value [2] was “did not impact responding on the inactive lever”, the “heroin PR breakpoint” value ([2]; PR challenge, P<0.05 vs saline) was “significantly lower breakpoints” and the “active lever responding (heroin SA, FR-1)” value ([2]; heroin 0.1 mg/kg/inf, days 8 (P<0.05), 9 and 10 (P<0.001)) was “significantly reduced active lever responding”. For the same substance, the “AUC 0-T, male vs female” value ([3]; intravenous bolus 1 mg/kg) was “comparable in male and female monkeys”, the “Cmax, male vs female” value ([3]; intravenous bolus 1 mg/kg) was “comparable in male and female monkeys” and the absolute bioavailability ([3]; males, 1 mg/kg, rhesus monkeys) was 89%. For the same substance, the oral bioavailability ([3]; non-human primates (Rhesus macaque), 1 mg/kg) was 88%, the oral bioavailability ([3]; primates, 1 mg/kg) was over 88% and the “time drug in plasma still measurable at anticipated therapeutic levels” value ([3]; single IV dose 1 mg/kg, post-dose) was at least 96 h. For the same substance, the “persistence at therapeutic levels in brain” value ([4]; IV or oral gavage, rats and guinea pigs (FIG. 10A)) was “at least 24 hrs”, the “brain entry compared to plasma levels” value ([4]; in vivo) was “preferentially enters the brain” and the “brain entry, oral compared to IV dosing” value ([5]; FIG. 10A) was “preferentially entered the brain by oral compared to IV dosing”. For the same substance, the brain entry ([5]; oral and IV dosing, rodents and non-human primates) was “quickly entered the brain”, the respiratory rate ([6]; RAP-103 1 mg/kg IP before morphine 5 mg/kg SC) was “abolished” and the cumulative respiratory rate ([6]; RAP-103 3 mg/kg IP before morphine 5 mg/kg SC, 60 min, P<0.01) was “normalized the morphine-induced increase in respiratory rate”. For the same substance, the “SpO2, RAP-103 by itself” value [6, 15] was “did not produce effects on SpO2”, the “respiratory rate, RAP-103 by itself” value [6, 15] was “did not produce effects on respiratory rate” and the “oxygen saturation (FIGS. 1A-1B)” value [6, 16] was “prevented the deficit in oxygen saturation”. For the same substance, the “respiratory rate (FIGS. 2A-2B)” value [6, 16] was “prevented the increase in respiratory rate”, the “CCR2 protein levels, VTA” value ([7]; RAP-103 1 mg/kg IP + morphine) was “did not alter morphine enhancement of CCR2” and the “CCR2 protein levels, PFC” value ([7]; RAP-103 by itself vs drug-naïve, P<0.05) was “reduction in CCR2 protein levels”. For the same substance, the “CCR2 protein levels, NAC” value [7, 17] was “did not display significantly different levels”, the “CCR2 protein levels, VTA” value [7, 17] was “not significantly different” and the “CCR2 protein levels, NAC” value ([7]; RAP-103 pretreatment 1 mg/kg IP + morphine, P<0.01) was “normalized morphine-induced deficits in CCR2 levels”. For the same substance, the “CCR5 protein levels, NAC” value [8, 17] was “did not display significantly different levels”, the “CCR5 protein levels, VTA” value [8, 17] was “not significantly different” and the “CCR5 protein levels, NAC” value ([8]; RAP-103 pretreatment 1 mg/kg IP + morphine, P<0.05) was “normalized morphine-induced deficits in CCR5 levels”. For the same substance, the “CCR5 protein levels, PFC” value ([8]; rats receiving RAP-103 vs drug-naïve, P<0.05) was “lower CCR5 levels”, the IC50 [9] was 4.2 pM and the “inhibition of chemokine ligand binding, CCR2” value [10] was “at least partially inhibits”. For the same substance, the cell membrane ruffling [11] was “downregulate”, the immune cell migration [11] was “downregulate” and the phagocytosis [11] was “downregulate”. For the same substance, the microglial chemotaxis [12] was “inhibit”, the microglial morphological change [12] was “inhibit” and the monocyte infiltration [13] was “reduces”. For the same substance, the spinal microglial activation [13] was “reduces”.
